Measured values from patent US9216173B2, “2-Pyridyl carboxamide-containing spleen tyrosine kinase (SYK) inhibitors” (Merck Sharp & Dohme Corp., priority 2011, dated 2015).
Where two headings read alike, the source gives them in different places.

Target: T1, recombinant human GST-SYK (Homo sapiens, UniProt P43405)
T1 construct: purchased Carna Biosciences 08-176
Experiment: Homogeneous Time-Resolved Fluorescence (HTRF) assay for the recombinant human Syk enzyme
Assay type: biochemical
Details: GST-hSYK 5 pM, ATP 25 μM, 10-dose titration 10 μM to 0.508 nM
Summary of the method: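 GST-hSYK fusion phosphorylates a peptide for 45 min at room temperature. Quenched with EDTA buffer containing 2 nM Eu-anti-phosphotyrosine antibody and 70 nM SA-APC. HTRF signal read after 30 min.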

[1] = read-out: rhSYK Activity (IC50 rating)

SMILES | IC50 [1] [µM] | IC50 (read-out: IC50) [µM]
Cc1cc(Nc2cc(N[C@@H]3CCCC[C@@H]3N)cnc2C(N)=O)nc(-c2cnn3c2CCCC3)c1 [Example 1.113, 5-{[(1R,2S)-2-aminocyclohexyl]amino}-3-{[4-methyl-6-(4,5,6,7-tetrahydropyrazolo[1,5-a]pyridin-3-yl)pyridin-2-yl]amino}pyridine-2-carboxamide] | < 0.01 | –
Cc1cc(Nc2cc(N[C@@H]3CCCC[C@@H]3N)cnc2C(N)=O)nc(-c2cnn3c2CCC3)c1 [Example 1.115, 5-{[(1R,2S)-2-aminocyclohexyl]amino}-3-{[6-(5,6-dihydro-4H-pyrrolo[1,2-b]pyrazol-3-yl)-4-methylpyridin-2-yl]amino}pyridine-2-carboxamide] | < 0.01 | –
Cc1cc(C)nc(Nc2cc(NCC(N)C3CC3)cnc2C(N)=O)c1 (stereo not drawn) [Example 1.118, 5-[(2-amino-2-cyclopropylethyl)amino]-3-[(4,6-dimethylpyridin-2-yl)amino]pyridine-2-carboxamide] | < 0.01 | –
CC(C)(O)COCc1cccc(Nc2cc(N[C@@H]3CCCC[C@@H]3N)cnc2C(N)=O)n1 [Example 1.120, 5-{[(1R,2S)-2-aminocyclohexyl]amino}-3-({6-[(2-hydroxy-2-methylpropoxy)methyl]pyridin-2-yl}amino)pyridine-2-carboxamide] | < 0.01 | –
Cc1cncc(Nc2cc(N[C@@H]3CCCC[C@@H]3N)cnc2C(N)=O)n1 [Example 1.121, 5-{[(1R,2S)-2-aminocyclohexyl]amino}-3-[(6-methylpyrazin-2-yl)amino]pyridine-2-carboxamide] | < 0.01 | –
Cc1cc(Nc2cc(N[C@@H]3CCCC[C@@H]3N)cnc2C(N)=O)nc(C)n1 [Example 1.125, 5-{[(1R,2S)-2-aminocyclohexyl]amino}-3-[(2,6-dimethylpyrimidin-4-yl)amino]pyridine-2-carboxamide] | < 0.01 | –
Cc1nc(C)c(Cl)c(Nc2cc(N[C@@H]3CCCC[C@@H]3N)cnc2C(N)=O)n1 [Example 1.126, 5-{[(1R,2S)-2-aminocyclohexyl]amino}-3-[(5-chloro-2,6-dimethylpyrimidin-4-yl)amino]pyridine-2-carboxamide] | 1 to 10 | 1.3
Cc1nc(Cl)cc(Nc2cc(N[C@@H]3CCCC[C@@H]3N)cnc2C(N)=O)n1 [Example 1.127, 5-{[(1R,2S)-2-aminocyclohexyl]amino}-3-[(6-chloro-2-methylpyrimidin-4-yl)amino]pyridine-2-carboxamide] | < 0.01 | –
NC(=O)c1ncc(N[C@@H]2CCCC[C@@H]2N)cc1Nc1nc(Cl)ncc1F [Example 1.128, 5-{[(1R,2S)-2-aminocyclohexyl]amino}-3-[(2-chloro-5-fluoropyrimidin-4-yl)amino]pyridine-2-carboxamide] | 0.01 to 0.1 | –
NC(=O)c1ncc(N[C@@H]2CCCC[C@@H]2N)cc1Nc1ccnc(C2CC2)n1 [Example 1.129, 5-{[(1R,2S)-2-aminocyclohexyl]amino}-3-[(2-cyclopropylpyrimidin-4-yl)amino]pyridine-2-carboxamide] | < 0.01 | –
COc1cc(C)nc(Nc2cc(N[C@@H]3CCOC[C@@H]3N)cnc2C(N)=O)c1 [Example 1.131, 5-{[(3R,4R)-3-aminotetrahydro-2H-pyran-4-yl]amino}-3-[(4-methoxy-6-methylpyridin-2-yl)amino]pyridine-2-carboxamide] | < 0.01 | –
CNC(=O)C(N)CNc1cnc(C(N)=O)c(Nc2cc(C)cc(C)n2)c1 (stereo not drawn) [Example 2.1, 5-{[2-amino-3-(methylamino)-3-oxopropyl]amino}-3-[(4,6-dimethylpyridin-2-yl)amino]pyridine-2-carboxamide] | 0.1 to 1 | –
Cc1cc(C)nc(Nc2cc(N[C@@H]3[C@H](N)CCCC3(F)F)cnc2C(N)=O)c1 [Example 2.5, 5-{[(1R,6R)-6-amino-2,2-difluorocyclohexyl]amino}-3-[(4,6-dimethylpyridin-2-yl)amino]pyridine-2-carboxamide] | < 0.01 | –
Cc1cc(C)nc(Nc2cc(NCC(N)C(=O)N(C)C)cnc2C(N)=O)c1 (stereo not drawn) [Example 2.9, 5-{[2-amino-3-(dimethylamino)-3-oxopropyl]amino}-3-[(4,6-dimethylpyridin-2-yl)amino]pyridine-2-carboxamide] | 0.1 to 1 | –
Cc1cc(C)nc(Nc2cc(NC3CCNCC3)cnc2C(N)=O)c1 [Example 2.10, 3-[(4,6-dimethylpyridin-2-yl)amino]-5-(piperidin-4-ylamino)pyridine-2-carboxamide] | 0.1 to 1 | –
Cc1cc(C)nc(Nc2cc(NC3CC(N)C3)cnc2C(N)=O)c1 (stereo not drawn) [Example 2.15, 5-[(3-aminocyclobutyl)amino]-3-[(4,6-dimethylpyridin-2-yl)amino]pyridine-2-carboxamide] | 0.01 to 0.1 | –
Cc1nc(Nc2cc(N[C@@H]3CCCC[C@@H]3N)cnc2C(N)=O)ccc1-c1cccc(C(O)C(F)F)c1 (stereo partly drawn) [Example 3.1, 5-{[(1R,2S)-2-aminocyclohexyl]amino}-3-({5-[3-(2,2-difluoro-1-hydroxyethyl)phenyl]-6-methylpyridin-2-yl}amino)pyridine-2-carboxamide] | < 0.01 | –
Cc1nc(Nc2cc(N[C@@H]3CCCC[C@@H]3N)cnc2C(N)=O)ccc1-c1ccccc1 [Example 3.2, 5-{[(1R,2S)-2-aminocyclohexyl]amino}-3-[(6-methyl-5-phenylpyridin-2-yl)amino]pyridine-2-carboxamide] | < 0.01 | 0.0039
Cc1nc(Nc2cc(N[C@@H]3CCCC[C@@H]3N)cnc2C(N)=O)ccc1-c1ccc(C(=O)O)cc1 [Example 3.5, 4-{6-[(5-{[(1R,2S)-2-aminocyclohexyl]amino}-2-carbamoylpyridin-3-yl)amino]-2-methylpyridin-3-yl}benzoic acid] | < 0.01 | –

Results, then the compound that gave them:

IC50 [1] [µM] | IC50 (read-out: IC50) [µM] | SMILES
< 0.01 | – | Cc1cc(Nc2cc(N[C@@H]3CCCC[C@@H]3N)cnc2C(N)=O)nc(-c2cnc(C(C)(C)O)s2)c1 [Example 1.114, 5-{[(1R,2S)-2-aminocyclohexyl]amino}-3-({6-[2-(1-hydroxy-1-methylethyl)-1,3-thiazol-5-yl]-4-methylpyridin-2-yl}amino)pyridine-2-carboxamide]
< 0.01 | – | CCC(C)(N)CNc1cnc(C(N)=O)c(Nc2cc(C)cc(C)n2)c1 (stereo not drawn) [Example 1.117, 5-[(2-amino-2-methylbutyl)amino]-3-[(4,6-dimethylpyridin-2-yl)amino]pyridine-2-carboxamide]
< 0.01 | – | CN1CCN(c2cccc(Nc3cc(N[C@@H]4CCCC[C@@H]4N)cnc3C(N)=O)n2)CC1 [Example 1.119, 5-{[(1R,2S)-2-aminocyclohexyl]amino}-3-{[6-(4-methylpiperazin-1-yl)pyridin-2-yl]amino}pyridine-2-carboxamide]
< 0.01 | – | NC(=O)c1ncc(N[C@@H]2CCCC[C@@H]2N)cc1Nc1ccnc(-n2nccn2)n1 [Example 1.122, 5-{[(1R,2S)-2-aminocyclohexyl]amino}-3-{[2-(2H-1,2,3-triazol-2-yl)pyrimidin-4-yl]amino}pyridine-2-carboxamide]
0.1 to 1 | – | NC(=O)c1ncc(N[C@@H]2CCCC[C@@H]2N)cc1Nc1ccncn1 [Example 1.123, 5-{[(1R,2S)-2-aminocyclohexyl]amino}-3-(pyrimidin-4-ylamino)pyridine-2-carboxamide]
< 0.01 | – | COc1cc(Nc2cc(N[C@@H]3CCCC[C@@H]3N)cnc2C(N)=O)nc(OC)n1 [Example 1.124, 5-{[(1R,2S)-2-aminocyclohexyl]amino}-3-[(2,6-dimethoxypyrimidin-4-yl)amino]pyridine-2-carboxamide]
< 0.01 | – | Cc1cc(C)nc(Nc2cc(N[C@@H]3CCOC[C@@H]3N)cnc2C(N)=O)c1 [Example 1.130, 5-{[(3R,4R)-3-aminotetrahydro-2H-pyran-4-yl]amino}-3-[(4,6-dimethylpyridin-2-yl)amino]pyridine-2-carboxamide]
< 0.01 | – | Cc1nc(Nc2cc(NC[C@H](C)N)cnc2C(N)=O)ccc1Br [Example 2.2, 5-{[(2S)-2-aminopropyl]amino}-3-[(5-bromo-6-methylpyridin-2-yl)amino]pyridine-2-carboxamide]
0.01 to 0.1 | – | Cc1cc(C)nc(Nc2cc(NCC(N)C(F)F)cnc2C(N)=O)c1 (stereo not drawn) [Example 2.4, 5-[(2-amino-3,3-difluoropropyl)amino]-3-[(4,6-dimethylpyridin-2-yl)amino]pyridine-2-carboxamide]
< 0.01 | – | CSCC(N)CNc1cnc(C(N)=O)c(Nc2cc(C)cc(C)n2)c1 (stereo not drawn) [Example 2.8, 5-{[2-amino-3-(methylsulfanyl)propyl]amino}-3-[(4,6-dimethylpyridin-2-yl)amino]pyridine-2-carboxamide]
0.01 to 0.1 | – | Cc1cc(C)nc(Nc2cc(NCC(N)Cc3ccccc3)cnc2C(N)=O)c1 (stereo not drawn) [Example 2.12, 5-[(2-amino-3-phenylpropyl)amino]-3-[(4,6-dimethylpyridin-2-yl)amino]pyridine-2-carboxamide]
0.01 to 0.1 | – | Cc1cc(C)nc(Nc2cc(NCC(N)CO)cnc2C(N)=O)c1 (stereo not drawn) [Example 2.14, 5-[(2-amino-3-hydroxypropyl)amino]-3-[(4,6-dimethylpyridin-2-yl)amino]pyridine-2-carboxamide]
< 0.01 | – | Cc1nc(Nc2cc(N[C@@H]3CCCC[C@@H]3N)cnc2C(N)=O)ccc1-c1cccc([N+](=O)[O-])c1 [Example 3.3, 5-{[(1R,2S)-2-aminocyclohexyl]amino}-3-{[6-methyl-5-(3-nitrophenyl)pyridin-2-yl]amino}pyridine-2-carboxamide]
< 0.01 | – | COc1ccc(-c2ccc(Nc3cc(N[C@@H]4CCCC[C@@H]4N)cnc3C(N)=O)nc2C)cc1OC [Example 3.4, 5-{[(1R,2S)-2-aminocyclohexyl]amino}-3-{[5-(3,4-dimethoxyphenyl)-6-methylpyridin-2-yl]amino}pyridine-2-carboxamide]
< 0.01 | – | Cc1nc(Nc2cc(N[C@@H]3CCCC[C@@H]3N)cnc2C(N)=O)ccc1-c1cccc(C(=O)O)c1 [Example 3.6, 3-{6-[(5-{[(1R,2S)-2-aminocyclohexyl]amino}-2-carbamoylpyridin-3-yl)amino]-2-methylpyridin-3-yl}benzoic acid]
